# Assay results taken from ChEMBL document CHEMBL2034968, “Discovery of novel urea-based hepatitis C protease inhibitors with high potency against protease-inhibitor-resistant mutants” (J Med Chem, 2012).
# What was measured:
# Hepatitis C virus [1] = experiment: Antiviral activity against Hepatitis C virus subtype 1b harboring protease A156S mutant by transient replicon assay; format: functional, organism-based, Hepacivirus hominis; details: genotype 1b
# Hepatitis C virus [2] = experiment: Antiviral activity against Hepatitis C virus subtype 1b harboring protease D168A mutant by transient replicon assay; format: functional, organism-based, Hepacivirus hominis; details: genotype 1b
# Hepatitis C virus [3] = experiment: Resistance index, ratio of EC50 for Hepatitis C virus subtype 1b harboring protease D168A mutant to EC50 for wild type Hepatitis C virus subtype 1b; format: functional, Hepacivirus hominis, genotype 1b
# Hepatitis C virus [4] = experiment: Antiviral activity against Hepatitis C virus subtype 1b harboring protease D168V mutant by transient replicon assay; format: functional, organism-based, Hepacivirus hominis; details: genotype 1b
# Hepatitis C virus [5] = experiment: Antiviral activity against Hepatitis C virus subtype 1b harboring protease A156V mutant by transient replicon assay; format: functional, organism-based, Hepacivirus hominis; details: genotype 1b
# [6] = Inhibition of HCV 1a protease 1a domain; design: species or system Hepacivirus hominis
# Hepatitis C virus [7] = experiment: Antiviral activity against Hepatitis C virus subtype 1b harboring protease A156T mutant by transient replicon assay; format: functional, organism-based, Hepacivirus hominis; details: genotype 1b
# Hepatitis C virus [8] = experiment: Resistance index, ratio of EC50 for Hepatitis C virus subtype 1b harboring protease R155K mutant to EC50 for wild type Hepatitis C virus subtype 1b; format: functional, Hepacivirus hominis, genotype 1b
# Hepatitis C virus [9] = experiment: Resistance index, ratio of EC50 for Hepatitis C virus subtype 1b harboring protease D168V mutant to EC50 for wild type Hepatitis C virus subtype 1b; format: functional, Hepacivirus hominis, genotype 1b
# Hepatitis C virus [10] = experiment: Antiviral activity against Hepatitis C virus subtype 1a by stable replicon assay; format: functional, organism-based, Hepacivirus hominis
# Hepatitis C virus [11] = experiment: Antiviral activity against Hepatitis C virus subtype 1b harboring protease R155K mutant by transient replicon assay; format: functional, organism-based, Hepacivirus hominis; details: genotype 1b
# Hepatitis C virus [12] = experiment: Antiviral activity against wild type Hepatitis C virus subtype 1b by transient replicon assay; format: functional, organism-based, Hepacivirus hominis; details: genotype 1b
# Hepatitis C virus [13] = experiment: Antiviral activity against Hepatitis C virus subtype 1b by stable replicon assay; format: functional, organism-based, Hepacivirus hominis; details: genotype 1b
# Rattus norvegicus [14] = experiment: (§1) Oral bioavailability in rat at 5 mg/kg; format: ADME, organism-based; details: in vivo
# Hepatitis C virus [15] = experiment: Ratio of EC50 for danoprevir to EC50 for compound against Hepatitis C virus subtype 1b harboring protease A156V mutant by transient replicon assay; format: functional, Hepacivirus hominis, genotype 1b
# Hepatitis C virus [16] = experiment: Ratio of EC50 for danoprevir to EC50 for compound against Hepatitis C virus subtype 1b harboring protease A156S mutant by transient replicon assay; format: functional, Hepacivirus hominis, genotype 1b
# Hepatitis C virus [17] = experiment: Ratio of EC50 for TMC-435350 to EC50 for compound against wild type Hepatitis C virus subtype 1b by transient replicon assay; format: functional, Hepacivirus hominis, genotype 1b
# Hepatitis C virus [18] = experiment: Ratio of EC50 for danoprevir to EC50 for compound against Hepatitis C virus subtype 1b harboring protease A156T mutant by transient replicon assay; format: functional, Hepacivirus hominis, genotype 1b
# [19] = AUC in rat liver at 5 mg/kg, po; format: ADME, organism-based; design: dose 5 mg/kg, route oral
# Rattus norvegicus [20] = experiment: (§2) AUC in rat at 1 mg/kg, iv; format: ADME, organism-based, Plasma; design: dose 1 mg/kg, route intravenous; details: in vivo
# [21] = Terminal half life in rat at 5 mg/kg, po; format: ADME, organism-based; design: dose 5 mg/kg, route oral; details: in vivo, read-out: beta t1/2 (converted)
# Rattus norvegicus [22] = experiment: (§3) AUC in rat at 5 mg/kg, po; format: ADME, organism-based, Plasma; design: dose 5 mg/kg, route oral; details: in vivo
# Hepatitis C virus [23] = experiment: Ratio of EC50 for TMC-435350 to EC50 for compound against Hepatitis C virus subtype 1b harboring protease D168V mutant by transient replicon assay; format: functional, Hepacivirus hominis, genotype 1b
# Hepatitis C virus [24] = experiment: Ratio of EC50 for TMC-435350 to EC50 for compound against Hepatitis C virus subtype 1b harboring protease A156V mutant by transient replicon assay; format: functional, Hepacivirus hominis, genotype 1b
# Rattus norvegicus [25] = experiment: Hepatic clearance in rat at 1 mg/kg, iv; format: ADME, organism-based, Liver; design: dose 1 mg/kg, route intravenous; details: in vivo
# Hepatitis C virus [26] = experiment: Ratio of EC50 for TMC-435350 to EC50 for compound against Hepatitis C virus subtype 1b harboring protease R155K mutant by transient replicon assay; format: functional, Hepacivirus hominis, genotype 1b
# Hepatitis C virus [27] = experiment: Ratio of EC50 for TMC-435350 to EC50 for compound against Hepatitis C virus subtype 1b harboring protease D168A mutant by transient replicon assay; format: functional, Hepacivirus hominis, genotype 1b
# Hepatitis C virus [28] = experiment: Ratio of EC50 for danoprevir to EC50 for compound against Hepatitis C virus subtype 1b harboring protease R155K mutant by transient replicon assay; format: functional, Hepacivirus hominis, genotype 1b
# Liver = experiment: Ratio of drug level in liver to plasma in rat at 5 mg/kg, po; format: ADME, organism-based; design: dose 5 mg/kg, route oral; details: other tissue
# Rattus norvegicus [29] = experiment: Dose normalized AUC in rat at 5 mg/kg, po; format: ADME, organism-based; design: dose 5 mg/kg, route oral; details: in vivo
# Hepatitis C virus [30] = experiment: Ratio of EC50 for danoprevir to EC50 for compound against Hepatitis C virus subtype 1b harboring protease D168A mutant by transient replicon assay; format: functional, Hepacivirus hominis, genotype 1b
# [31] = Maximum drug absorption in rat at 5 mg/kg, po; format: ADME, organism-based; design: dose 5 mg/kg, route oral; details: in vivo, read-out: Drug absorption
# [32] = Terminal half life in rat liver at 5 mg/kg, po; format: ADME, organism-based; design: dose 5 mg/kg, route oral; details: read-out: beta t1/2 (converted)
# Hepatitis C virus [33] = experiment: Ratio of EC50 for TMC-435350 to EC50 for compound against Hepatitis C virus subtype 1b harboring protease A156T mutant by transient replicon assay; format: functional, Hepacivirus hominis, genotype 1b
# Hepatitis C virus [34] = experiment: Ratio of EC50 for danoprevir to EC50 for compound against Hepatitis C virus subtype 1b harboring protease D168V mutant by transient replicon assay; format: functional, Hepacivirus hominis, genotype 1b
# Hepatitis C virus [35] = experiment: Ratio of EC50 for TMC-435350 to EC50 for compound against Hepatitis C virus subtype 1b harboring protease A156S mutant by transient replicon assay; format: functional, Hepacivirus hominis, genotype 1b
# Hepatitis C virus [36] = experiment: Ratio of EC50 for danoprevir to EC50 for compound against wild type Hepatitis C virus subtype 1b by transient replicon assay; format: functional, Hepacivirus hominis, genotype 1b
# [37] = as §1; format: ADME, organism-based; details: in vivo
# [38] = as §2; format: ADME, organism-based, Plasma; design: dose 1 mg/kg, route intravenous; details: plasma
# [39] = as §3; format: ADME, organism-based, Plasma; design: dose 5 mg/kg, route oral; details: plasma
Compound,EC50 (Hepatitis C virus [1]),EC50 (Hepatitis C virus [2]),Ratio EC50 (Hepatitis C virus [3]),EC50 (Hepatitis C virus [4]),EC50 (Hepatitis C virus [5]),IC50 [6],EC50 (Hepatitis C virus [7]),Ratio EC50 (Hepatitis C virus [8]),Ratio EC50 (Hepatitis C virus [9]),EC50 (Hepatitis C virus [10]),EC50 (Hepatitis C virus [11]),EC50 (Hepatitis C virus [12]),EC50 (Hepatitis C virus [13]),half-life [21],CLH (Rattus norvegicus [25]),AUC/dose (Rattus norvegicus [29]),Fa [31],further results
COc1ccc2c(O[C@@H]3C[C@H]4C(=O)N[C@]5(C(=O)NS(=O)(=O)C6CC6)C[C@H]5/C=C\CCCCC[C@H](NC(=O)N(C)C(C)C)C(=O)N4C3)cc(-c3nc(C4CC4)cs3)nc2c1C,0.05 nM,17 nM,<1000,37 nM,5 nM,0.8 nM,2 nM,<1000,<1000,0.3 nM,5 nM,0.04 nM,0.4 nM,,,,,
CCC[C@H](NC(=O)[C@@H]1[C@H]2CCC[C@H]2CN1C(=O)[C@@H](NC(=O)[C@@H](NC(=O)c1cnccn1)C1CCCCC1)C(C)(C)C)C(=O)C(=O)NC1CC1 [TELAPREVIR],883 nM,638 nM,6,207 nM,1960 nM,500 nM,1140 nM,6,6,540 nM,1780 nM,34 nM,372 nM,,,,,
CC(C)(C)OC(=O)N[C@H]1CCCCC/C=C\[C@@H]2C[C@@]2(C(=O)NS(=O)(=O)C2CC2)NC(=O)[C@@H]2C[C@@H](OC(=O)N3Cc4cccc(F)c4C3)CN2C1=O [DANOPREVIR],2 nM,39 nM,10,26 nM,8 nM,0.7 nM,10 nM,10,10,2 nM,82 nM,0.2 nM,1.5 nM,,,,,
COc1ccc2c(O[C@@H]3C[C@H]4C(=O)N[C@]5(C(=O)NS(=O)(=O)C6CC6)C[C@H]5/C=C\CCCCC[C@H](NC(=O)N5CCCCC5)C(=O)N4C3)cc(-c3nc(C(C)C)cs3)nc2c1C,0.1 nM,32 nM,,79 nM,7 nM,5 nM,2 nM,,,0.4 nM,6 nM,0.04 nM,0.5 nM,69.6 min,83.4 mL/min/kg,0.053 kg·µg·h/mL/mg,20%,F (Rattus norvegicus [14]): 9.4%; Ratio EC50 (Hepatitis C virus [15]): 1; Ratio EC50 (Hepatitis C virus [16]): 21; Ratio EC50 (Hepatitis C virus [17]): 23; Ratio EC50 (Hepatitis C virus [18]): 5; AUC [19]: 308 µg·h/mL; AUC (Rattus norvegicus [20]): 0.268 µg·h/mL; AUC (Rattus norvegicus [22]): 0.266 µg·h/mL; Ratio EC50 (Hepatitis C virus [23]): 2; Ratio EC50 (Hepatitis C virus [24]): 49; Ratio EC50 (Hepatitis C virus [26]): 9; Ratio EC50 (Hepatitis C virus [27]): 5; Ratio EC50 (Hepatitis C virus [28]): 14; Ratio (Liver): 1158; Ratio EC50 (Hepatitis C virus [30]): 1; half-life [32]: 486 min; Ratio EC50 (Hepatitis C virus [33]): 43; Ratio EC50 (Hepatitis C virus [34]): 0.3; Ratio EC50 (Hepatitis C virus [35]): 3.5; Ratio EC50 (Hepatitis C virus [36]): 5
COc1ccc2c(O[C@@H]3C[C@H]4C(=O)N[C@]5(C(=O)NS(=O)(=O)C6CC6)C[C@H]5/C=C\CCCCC[C@H](NC(=O)N5CCC5)C(=O)N4C3)cc(-c3nc(C(C)C)cs3)nc2c1C,0.2 nM,60 nM,<1000,97 nM,8 nM,4 nM,2 nM,<1000,<1000,0.8 nM,20 nM,0.1 nM,0.4 nM,136 min,160.3 mL/min/kg,0.008 kg·µg·h/mL/mg,7.6%,bioavailability [37]: 4.2%; AUC [38]: 107 ng·h/mL; AUC [39]: 40.5 ng·h/mL
COc1ccc2c(O[C@@H]3C[C@H]4C(=O)N[C@]5(C(=O)NS(=O)(=O)C6CC6)C[C@H]5/C=C\CCCCC[C@H](NC(=O)N5CC(F)(F)C5)C(=O)N4C3)cc(-c3nc(C(C)C)cs3)nc2c1C,,15 nM,<1000,58 nM,6 nM,2 nM,1 nM,<1000,<1000,0.8 nM,14 nM,0.1 nM,0.5 nM,48.4 min,91.03 mL/min/kg,0.014 kg·µg·h/mL/mg,6.8%,bioavailability [37]: 4%; AUC [38]: 203 ng·h/mL; AUC [39]: 69 ng·h/mL
COc1ccc2c(O[C@@H]3C[C@H]4C(=O)N[C@@]5(C(=O)NS(=O)(=O)C6CC6)C[C@@H]5/C=C/CCCCN(C)C(=O)[C@@H]4C3)cc(-c3nc(C(C)C)cs3)nc2c1C,0.3 nM,149 nM,0.3,140 nM,344 nM,10 nM,86 nM,0.3,0.3,2 nM,56 nM,1 nM,1 nM,,,,,
COc1ccc2c(O[C@@H]3C[C@H]4C(=O)N[C@]5(C(=O)NS(=O)(=O)C6CC6)C[C@H]5/C=C\CCCCC[C@H](NC(=O)N(C(C)C)C(C)C)C(=O)N4C3)cc(-c3nc(C4CC4)cs3)nc2c1C,0.6 nM,64 nM,<1000,105 nM,43 nM,2 nM,11 nM,<1000,<1000,0.7 nM,46 nM,0.2 nM,0.9 nM,,,,,
CCN(C(=O)N[C@H]1CCCCC/C=C\[C@@H]2C[C@@]2(C(=O)NS(=O)(=O)C2CC2)NC(=O)[C@@H]2C[C@@H](Oc3cc(-c4nc(C5CC5)cs4)nc4c(C)c(OC)ccc34)CN2C1=O)C(C)C,0.7 nM,50 nM,<1000,151 nM,24 nM,1 nM,8 nM,<1000,<1000,0.4 nM,16 nM,0.2 nM,0.4 nM,,,,,
CCN(C)C(=O)N[C@H]1CCCCC/C=C\[C@@H]2C[C@@]2(C(=O)NS(=O)(=O)C2CC2)NC(=O)[C@@H]2C[C@@H](Oc3cc(-c4nc(C(C)C)cs4)nc4c(C)c(OC)ccc34)CN2C1=O,0.5 nM,60 nM,<1000,147 nM,11 nM,6 nM,3 nM,<1000,<1000,0.7 nM,25 nM,0.2 nM,0.4 nM,,,,,
